Source: paper PMC4109680, “Identification and Preclinical Pharmacology of the γ-Secretase Modulator BMS-869780” (International Journal of Alzheimer's Disease, 2014)

Tests used:
[1] = tested on: rat brain APP-CTFβ and APP-CTFα; assay: Immunoprecipitation and western blot of APP-CTFβ and APP-CTFα from rat brain; assay type: in vivo; settings: oral doses 1.9-235 mg/kg, 24 hours
Method: Rats were given oral doses of BMS-869780, and levels of brain Aβ, βCTF, and αCTF were determined 24 hours later. For comparison, BMS-698861 was dosed in a separate experiment and samples were taken 5 hours later. (a) Brain levels of Aβ1-42 (red), Aβ1-40 (green), Aβ1-38 (blue), and Aβ1-37 (purple) are shown as bars stacked upon one another. The total height of each bar therefore represents the sum of the four peptides. (b) Aβ1-42 (red—left Y axis) and Aβ1-x (grey—right Y axis). The same results for Aβ1-42 are plotted in both (a) and (b). (c) Rat brain βCTF was detected by western blotting of immunoprecipitates from samples of the same rat brains used for Aβ determinations. V, vehicle groups; results from rats dosed with 1.9, 22, 100, and 235 mg/kg of BMS-869780 and 10 mg/kg BMS-698861 (GSI) are indicated. (d) Western blots of immunoprecipitated αCTF from the same rat brain samples. (e) and (f) quantification of western blots shown in (c) and (d), respectively, expressed relative to percent of average level of CTF in vehicle-treated rats. Actual doses of BMS-869780 were determined by analysis of concentrations in left-over dosing solutions. […]

[2] = tested on: Aβ1-42 (MEF PS1wt); assay: Aβ1-42 ELISA in MEF dKO cultures cotransfected with APP-CTF and human presenilin-1 wild type; assay type: cell-based; settings: wild type human presenilin-1
Method: H4-APPsw cell cultures were maintained on Dulbecco's modified Eagle's medium (DMEM) supplemented with L-glutamine (2 mM), fetal bovine serum (10%), and G418 (100 μg/mL). […] Aβ1-42 and Aβ1-40 assays, and Notch inhibition assays, were carried out as described previously. Mouse embryonic fibroblasts deficient in PS1 and PS2 (MEF dKO) were passaged twice per week in DMEM/F-12 medium, consisting of a 1 : 1 mixture of DMEM and F-12 nutrient mixture supplemented with 10% fetal bovine serum, penicillin, and streptomycin. For expression of human presenilin-1 in MEF dKO cells, the full length human presenilin-1 cDNA open reading frame was cloned between the BamHI and XhoI sites of the vector pcDNA5/FRT (Invitrogen), placing presenilin-1 expression under the control of the CMV promoter. […]
IC50 determinations for Aβ1-42 and Aβ1-40 in H4-APPsw cultures in 384-well format were determined using homogeneous time-resolved fluorescence immunoassays as previously described. […] In other experiments using H4-APPsw cultures, Aβ was quantified by ELISA; for Aβ1-42 the combination of monoclonal antibodies was 26D6 and 565-HRP; for Aβ1-40 it was TSD and 26D6-HRP, and for Aβ1-x it was 4G8 and 26D6-HRP. […] For Aβ in transiently transfected PS1/PS2 dKO fibroblasts, Aβ1-42 was quantified using an ELISA kit (WACO), and Aβ1-40 was quantified by ELISA as described above for H4-APPsw cultures. […]

SMILES: COc1cc(Nc2nc3n(n2)CCCC[C@H]3c2ccc(F)cc2)ccc1-n1cnc(Cl)c1 [BMS-869780]
- rat brain APP-CTFβ and APP-CTFα levels [1]: Neither APP-CTFβ nor APP-CTFα levels were affected
- IC50 [2]: 7.7 nM
